Results as given in publication PMC9775322, “An Integrated Analysis of Mechanistic Insights into Biomolecular Interactions and Molecular Dynamics of Bio-Inspired Cu(II) and Zn(II) Complexes towards DNA/BSA/SARS-CoV-2 3CL^pro by Molecular Docking-Based Virtual Screening and FRET Detection” (Biomolecules, 2022).

Experiments:
BSA = biological target: T1, BSA (Bos taurus, UniProt P02769); experiment: Förster's theory-based FRET computation, donor (BSA)–acceptor (compound); assay type: binding, bovine; set-up: kET (rate of exchange resonance energy transfer): unit not given here
T1 construct: purchased Sigma Aldrich
T1 sequence (P02769 25-607): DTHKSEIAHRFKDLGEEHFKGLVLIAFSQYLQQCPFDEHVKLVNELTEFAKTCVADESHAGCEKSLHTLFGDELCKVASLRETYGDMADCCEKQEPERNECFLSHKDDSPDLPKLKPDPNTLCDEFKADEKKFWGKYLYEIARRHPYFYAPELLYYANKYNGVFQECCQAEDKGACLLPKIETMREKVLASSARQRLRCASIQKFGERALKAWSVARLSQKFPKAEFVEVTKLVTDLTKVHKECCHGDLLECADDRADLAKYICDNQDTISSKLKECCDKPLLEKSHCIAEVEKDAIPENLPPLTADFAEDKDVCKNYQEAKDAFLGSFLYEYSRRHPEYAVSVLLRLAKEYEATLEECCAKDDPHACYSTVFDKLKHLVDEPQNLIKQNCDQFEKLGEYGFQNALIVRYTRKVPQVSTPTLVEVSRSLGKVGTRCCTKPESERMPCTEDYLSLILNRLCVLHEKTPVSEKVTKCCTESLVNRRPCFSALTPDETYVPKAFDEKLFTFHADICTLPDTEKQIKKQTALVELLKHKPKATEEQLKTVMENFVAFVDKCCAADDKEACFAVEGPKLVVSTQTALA
Description: As per Förster’s theory, the critical distance of the donor-acceptor system can be determined with the supporting of the FRET approach to assess the binding affinity between BSA-substance systems. […]
excitation and emission directions, respectively. Also, the alteration in absorbance (OD) at the excitation and fluorescence wavelengths, respectively, is sometimes referred to as A ex and […]
F = 1+KSV [Q] = 1+ Kq τ0 (S13)
Where [Q] is represented as the sample concentration (quencher), the emission intensities F 0 and F are those in the […] of the quencher, respectively.
F ) = log Kass + nlog [Q] (S14)
KEB[EB] = Kapp[compound] (S15)
∆F = (F 0–F), Equation (16) was utilized to examine the Lineweaver –Burk binding constant (KLB) from the linear regression plot of 1/(F0–F) vs 1/[Q]. […]
γ =(F0–F)/F0, CF is denoted as the concentration of sample alone, the linear regression plot of (γ/CF) vs γ was employed to support equation (17), which was used to determine the values of KSA and n, respectively.
2.2.6. FRET calculation by Förster’s theory
Calculating FRET (Fluorescence Resonance Energy Transfer) is a crucial approach in determining the critical distance (r) between donor (BSA) and acceptor (test compound) molecules, in which the binding affinity between the BSA-complex systems could be evalued according to Förster’s theory. The overlap of the emission spectrum of the donor (BSA) and the absorption spectrum of the acceptor (compound) describes that the acceptor (compound) group may get excited as a result of the excited donor's (BSA) energy being lost to the ground […]
The relative orientation factor of the dipoles (K 2) is associated with the geometry of the BSA and complex of the dipoles, the value for random orientation (K 2 = 2/3) like in a fluid […]
F(λ) is represented as the corrected or the normalized emission intensity(OD) of the bovine serum albumin in the range of λ–(λ+∆λ), ε(λ) is denoted as the molar extinction coefficient of […]
The radiative, non-radiative decay and quenching rate constants are denoted as k r, knr and kq, respectively, and the concentration of complex (quenching species) is described as [Q].

CT-DNA [1] = experiment: DNA binding affinity by viscometric (hydrodynamic) titration; set-up: species or system calf; conditions: for Relative Specific Viscosity (η/η0)^1/3: DNA 100 µM
Protocol: The hydrodynamic titrations were carried out for all substances along with ethidium bromide (control) at 20, 40, 60, 80, 100 µM concentrations. In the Ostwald viscometer, these substances were also separately treated with the deoxyribonucleic acid solution (100 µM).
2.2.4. Viscometry-based titration for investigation of DNA binding
The Viscometry-based titration measurements were further supportive and delivered data about the binding modes between test compound and DNA base pairs. Nevertheless, it does not deliver definite confirmation for the exact mode of interactions. The experiment performed for all test compounds and ethidium bromide (control) at various concentrations 20, 40, 60, 80, 100 µM and each compound mixed with the CT-DNA solution (100 µM) in the Ostwald viscometer. With an accuracy of 0.01 seconds, a digital stopwatch was used to measure the average flow time. Due to the enhancement of the DNA's overall contour length during the separation of base pairs at intercalation sites, the classical intercalative mode […]
Generally, the compounds may result in less positive/negative or no viscosity change if they bind with DNA base pairs via […]
major or minor grooves [ 26]. […]
compounds via intercalation.

EB–DNA = experiment: Ethidium bromide displacement assay by fluorescence spectral titration; assay type: binding, calf; conditions: Kapp=KEB[EB]/[compound], KEB = 10^7 M^−1 at 50 µM EB; compound concentration at 50% reduction of EB fluorescence
CT-DNA [2] = experiment: DNA binding by UV–visible absorption titration; set-up: species or system calf
Protocol: The DNA-binding experiment was performed by a UV–visible spectrophotometer by raising the DNA concentration from zero to 50 μM to the given concentration of all samples (50 μM) in Tris-HCl buffer with a pH of 7.4 at 25 °C [21, 22].
2.2.2. Evaluation of DNA-binding characteristics
By increasing the concentration of DNA (0 –50 μM), electronic absorption titrations were performed at the fixed concentration (50 μM) of all test compounds in aqueous media at room temperature. The Tris-HCl buffer (5mM Tris-HCl /50 mM NaCl, pH = 7.2) solution was guaranteed to be pure and contain sufficient amounts of DNA. Using the molar extinction coefficient (6600 M −1 cm−1) at 260 nm, it was also possible to measure the DNA concentration per nucleotide and polynucleotide, denoting that the DNA was sufficiently free of protein by the ratio of absorbance at 260 and 280 nm of roughly 1.8 –1.9 [21, 22]. When raising the concentration of DNA in compound solution, up to the point of completely binding, the decrease in absorbance intensity was carefully observed. […]
ɛa is represented as the apparent absorption coefficient value for the MLCT band at a specific concentration of deoxyribonucleic acid and evaluated from Abs/[complex]. ɛ f and ɛb are the absorption coefficients for the chemical substance alone and completely interacted with deoxyribonucleic acid, respectively. ∆Amax = (Amax–A0); ∆A=(Ax–A0), where A0, Ax and Amax are denoted as the optical density of chemical substances alone, the middle form, and the completely interacted form with deoxyribonucleic acid, respectively.

[3] = Nitric oxide scavenging assay; assay type: biochemical; conditions: 546 nm
[4] = Hydroxyl radical scavenging assay; assay type: biochemical; conditions: 230 nm
[5] = test system: Chromo bacterium violaceum; experiment: Agar disc diffusion antibacterial test; conditions: C, (-) Chromo bacterium violaceum
[6] = compound 50 μM, DNA 0–50 μM, Tris-HCl buffer pH 7.4, 25 °C
[7] = intrinsic DNA binding constant, UV–Vis titration

## [O-]c1ccccc1N=Cc1ccc(N2CCOCC2)cc1.[O-]c1ccccc1N=Cc1ccc(N2CCOCC2)cc1.[Zn+2].c1cnc2c(c1)ccc1cccnc12 [(2b), [Zn^II(L)2(phen)]]
BSA; BSA emission vs compound absorption
  J (normalized spectral overlap integral): 0.9460 × 10^−14 LM^−1cm^3
BSA; BSA–compound
  kET (rate of exchange resonance energy transfer): 4.7730
  r (donor-acceptor separation): 2.8257 nm
BSA; E=1−F/F0
  E (efficiency of energy transfer): 0.3231
BSA; free BSA = 6573.60 M^−1 cm^−1
  B (average brightness of the complex-BSA system): 5650.81 M⁻¹ cm⁻¹
BSA; n = 1.36, Φ = 0.15, K^2 = 2/3
  R0 (critical distance, 50% energy transfer): 2.4980 nm
CT-DNA [1]; R = [Complex]/[DNA] = 0.2
  Relative Specific Viscosity (η/η0)^1/3: 0.80
CT-DNA [1]; R = [Complex]/[DNA] = 0.4
  Relative Specific Viscosity (η/η0)^1/3: 0.91
CT-DNA [1]; R = [Complex]/[DNA] = 0.6
  Relative Specific Viscosity (η/η0)^1/3: 1.16
CT-DNA [1]; R = [Complex]/[DNA] = 0.8
  Relative Specific Viscosity (η/η0)^1/3: 1.21
CT-DNA [1]; R = [Complex]/[DNA] = 1.0
  Relative Specific Viscosity (η/η0)^1/3: 1.53
CT-DNA [1]; linear plot, R 0.2–1.0
  Slope of (η/η0)^1/3 vs [Compound]/[DNA]: 0.840
EB–DNA
  Kapp (apparent binding constant): 4.804e+06 M⁻¹
CT-DNA [2]; DNA binding, UV–Vis titration
  ΔGb° values, range over all methods (WS, BH, SK): −24.47 to −24.65 kJmol^−1
CT-DNA [2]; [6]
  % H (hypochromism): 55.75%
  Δλ nm (red shift on binding to CT-DNA): 5 nm
CT-DNA [2]; [7]
  Kb, BH–I (Benesi–Hildebrand method I): 20131 M⁻¹
  Kb, BH–II (Benesi–Hildebrand method II): 20035 M⁻¹
  Kb, SK–I (Sakthi–Krause method I): 19471 M⁻¹
  Kb, SK–II (Sakthi–Krause method II): 20897 M⁻¹
  Kb, WS–I (Wolfe-Shimmer method I): 19930 M⁻¹
  Kb, WS–II (Wolfe-Shimmer method II): 20811 M⁻¹
CT-DNA [2]; −RT ln Kb, T = 298 K
  ΔGb°, BH–I: −24.55 kJmol^−1
  ΔGb°, BH–II: −24.54 kJmol^−1
  ΔGb°, SK–I: −24.47 kJmol^−1
  ΔGb°, SK–II: −24.65 kJmol^−1
  ΔGb°, WS–I: −24.53 kJmol^−1
  ΔGb°, WS–II: −24.64 kJmol^−1
[3]; 40 µM
  % Inhibition, nitric oxide: 14.67%
[3]; 80 µM
  % Inhibition, nitric oxide: 22.43%
[3]; 120 µM
  % Inhibition, nitric oxide: 29.42%
[3]; 160 µM
  % Inhibition, nitric oxide: 38.82%
[3]; 200 µM
  % Inhibition, nitric oxide: 45.53%
[3]; 240 µM
  % Inhibition, nitric oxide: 59.88%
[4]; 40 µM
  % Inhibition, hydroxyl radical: 08.33%
[4]; 80 µM
  % Inhibition, hydroxyl radical: 17.12%
[4]; 120 µM
  % Inhibition, hydroxyl radical: 27.05%
[4]; 160 µM
  % Inhibition, hydroxyl radical: 36.68%
[4]; 200 µM
  % Inhibition, hydroxyl radical: 47.03%
[4]; 240 µM
  % Inhibition, hydroxyl radical: 57.83%
[5]; 20 µL of 100 µM on 6 mm disc, Control (DMSO) = 6 mm
  diameter of clear zone inhibition: 11 mm
[5]; (T–C)/T × 100
  Inhibition %: 45%
